Patent publication US20250268877A1 (BIOGEN MA INC., priority 2020, published 2025)
pIC50: −log10 of the molar value. Values after ≈ are worked out from the molar mass of the structure shown.

Columns and labels:
[1] = biological target: IRAK4 (Homo sapiens (Human), UniProt Q9NWZ3); test: IRAK4 2-hour 1 mM ATP Biochemical Assay (MesoScale Detection format); conditions: 100 pM IRAK4, read-out: IRAK4 IC50
[2] = biological target: MDR1 (Homo sapiens (Human), UniProt P08183); test: MDR1-MDCK assay (apparent permeability, efflux ratio); type: in vitro ADME; conditions: human, MDCK-MDR1, 1 μM, read-out: MDR1-MDCK_Efflux Ratio
Chain of MDR1 (P08183 whole entry): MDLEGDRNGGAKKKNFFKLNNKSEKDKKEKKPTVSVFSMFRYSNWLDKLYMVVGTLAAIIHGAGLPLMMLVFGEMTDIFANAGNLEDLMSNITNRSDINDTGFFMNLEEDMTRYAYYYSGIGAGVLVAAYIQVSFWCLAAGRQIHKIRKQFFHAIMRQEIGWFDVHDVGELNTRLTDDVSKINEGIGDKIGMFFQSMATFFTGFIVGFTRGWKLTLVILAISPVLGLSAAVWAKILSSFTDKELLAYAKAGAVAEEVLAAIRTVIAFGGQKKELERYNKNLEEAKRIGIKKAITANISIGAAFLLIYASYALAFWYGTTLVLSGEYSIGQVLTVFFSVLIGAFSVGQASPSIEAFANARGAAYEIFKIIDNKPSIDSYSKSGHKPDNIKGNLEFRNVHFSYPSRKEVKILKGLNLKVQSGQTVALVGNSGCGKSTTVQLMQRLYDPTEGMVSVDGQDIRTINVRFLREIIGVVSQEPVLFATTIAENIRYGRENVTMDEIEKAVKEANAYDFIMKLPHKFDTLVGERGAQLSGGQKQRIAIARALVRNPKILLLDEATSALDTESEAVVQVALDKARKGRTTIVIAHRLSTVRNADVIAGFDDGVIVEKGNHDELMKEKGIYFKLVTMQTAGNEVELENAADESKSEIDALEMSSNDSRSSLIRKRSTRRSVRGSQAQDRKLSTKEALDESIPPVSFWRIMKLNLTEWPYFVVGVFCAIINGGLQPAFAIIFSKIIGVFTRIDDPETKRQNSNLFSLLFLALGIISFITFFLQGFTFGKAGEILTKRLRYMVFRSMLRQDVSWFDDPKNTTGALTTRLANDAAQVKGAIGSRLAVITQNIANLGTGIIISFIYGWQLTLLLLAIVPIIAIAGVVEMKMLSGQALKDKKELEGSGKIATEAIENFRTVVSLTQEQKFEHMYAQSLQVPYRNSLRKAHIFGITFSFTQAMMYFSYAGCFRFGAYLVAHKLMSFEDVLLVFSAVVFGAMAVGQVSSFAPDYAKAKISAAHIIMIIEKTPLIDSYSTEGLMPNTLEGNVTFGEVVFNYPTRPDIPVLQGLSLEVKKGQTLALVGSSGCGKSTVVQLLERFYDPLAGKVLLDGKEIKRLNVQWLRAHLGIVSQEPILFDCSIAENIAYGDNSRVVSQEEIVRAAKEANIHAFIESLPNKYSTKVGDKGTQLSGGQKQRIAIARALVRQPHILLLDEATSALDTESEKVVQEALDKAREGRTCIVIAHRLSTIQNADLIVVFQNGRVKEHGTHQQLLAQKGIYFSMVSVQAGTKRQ

[3] = Kinetic solubility assay (CLND), potassium phosphate buffer pH 6.8; type: physicochemical; conditions: potassium phosphate buffer, pH 6.8, aqueous buffer, kinetic from dmso stock, pH 6.8, 2% DMSO, 24 hours at ambient temperature
Description: • Inject filtrates into the nitrogen detector for quantification on Analiza's Automated Discovery Workstation (ADW). • Solubility results generated in μg/mL

Chain of IRAK4 (Q9NWZ3 whole entry): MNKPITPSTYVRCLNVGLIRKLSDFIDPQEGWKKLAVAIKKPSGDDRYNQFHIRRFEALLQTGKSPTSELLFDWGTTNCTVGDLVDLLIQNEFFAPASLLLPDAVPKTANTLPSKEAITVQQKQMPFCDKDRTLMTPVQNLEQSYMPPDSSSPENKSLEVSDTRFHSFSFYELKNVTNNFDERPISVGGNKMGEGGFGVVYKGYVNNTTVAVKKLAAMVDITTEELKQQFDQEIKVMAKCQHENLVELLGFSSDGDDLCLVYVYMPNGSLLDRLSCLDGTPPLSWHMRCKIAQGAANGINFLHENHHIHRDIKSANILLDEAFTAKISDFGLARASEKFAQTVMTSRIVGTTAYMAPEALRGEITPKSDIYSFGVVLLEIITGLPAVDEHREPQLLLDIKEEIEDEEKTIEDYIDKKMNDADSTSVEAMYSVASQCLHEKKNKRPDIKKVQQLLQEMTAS

SMILES	pIC50 [1]	efflux ratio at 120 min, 1 μM [2]	solubility at 24 h [3]
CC(C)Oc1nc2nn(C34COC(C)(C3)C4)cc2cc1C(=O)Nc1cccn([C@@H]2CC2(C)C)c1=O [Example 22, (R)—N-(1-(2,2-dimethylcyclopropyl)-2-oxo-1,2-dihydropyridin-3-yl)-6-isopropoxy-2-(1-methyl-2-oxabicyclo[2.1.1]hexan-4-yl)-2H-pyrazolo[3,4-b]pyridine-5-carboxamide]	7.57	1.03	
CC[C@@H](C)Oc1nc2nn(C34COC(CF)(C3)C4)cc2cc1C(=O)Nc1cccn(C2CC2)c1=O [Example 20, (R)-6-(sec-butoxy)-N-(1-cyclopropyl-2-oxo-1,2-dihydropyridin-3-yl)-2-(1-(fluoromethyl)-2-oxabicyclo[2.1.1]hexan-4-yl)-2H-pyrazolo[3,4-b]pyridine-5-carboxamide]	8.40	2.26	
CC(C)Oc1nc2nn(C34COC(C3)C4)cc2cc1C(=O)Nc1cccn([C@@H]2C[C@@H]2C)c1=O [Example 75, 2-(2-oxabicyclo[2.1.1]hexan-4-yl)-6-isopropoxy-N-(1-((1R,2S)-2-methylcyclopropyl)-2-oxo-1,2-dihydropyridin-3-yl)-2H-pyrazolo[3,4-b]pyridine-5-carboxamide]	7.43	3.63	
CC(C)Oc1nc2nn(C34COC(C)(C3)C4)cc2cc1C(=O)Nc1cccn(C2C[C@@H]2F)c1=O (mixture of isomers) [Example 42, racemic-(Trans)-N-(1-(2-fluorocyclopropyl)-2-oxo-1,2-dihydropyridin-3-yl)-6-isopropoxy-2-(1-methyl-2-oxabicyclo[2.1.1]hexan-4-yl)-2H-pyrazolo[3,4-b]pyridine-5-carboxamide]		2.5	2.8 µg/mL (≈ 5.99 µM)
CC(C)Oc1cc2nn(C34COC(C)(C3)C4)cc2cc1C(=O)Nc1cccn([C@H]2C[C@H]2C)c1=O [Example 96, 6-isopropoxy-2-(1-methyl-2-oxabicyclo[2.1.1]hexan-4-yl)-N-(1-((1S,2R)-2-methylcyclopropyl)-2-oxo-1,2-dihydropyridin-3-yl)-2H-indazole-5-carboxamide]			13.6 µg/mL (≈ 29.4 µM)
CC(C)Oc1nc2nn(C34COC(C)(C3)C4)cc2cc1C(=O)Nc1cccn([C@@H]2C[C@@H]2F)c1=O (racemic) [Example 32, (rac)-Cis-N-(1-(2-fluorocyclopropyl)-2-oxo-1,2-dihydropyridin-3-yl)-6-isopropoxy-2-(1-methyl-2-oxabicyclo[2.1.1]hexan-4-yl)-2H-pyrazolo[3,4-b]pyridine-5-carboxamide]		4.18	16 µg/mL (≈ 34.2 µM)
COCC12CC(n3cc4cc(C(=O)Nc5cccn([C@@H]6C[C@H]6F)c5=O)c(OC5CCC5)cc4n3)(CO1)C2 [Example 57, 6-cyclobutoxy-N-(1-((1R,2R)-2-fluorocyclopropyl)-2-oxo-1,2-dihydropyridin-3-yl)-2-(1-(methoxymethyl)-2-oxabicyclo[2.1.1]hexan-4-yl)-2H-indazole-5-carboxamide]	8.77	2.39	
CC(C)Oc1cc2nn(C34COC(CF)(C3)C4)cc2cc1C(=O)Nc1cccn([C@@H]2C[C@@H]2F)c1=O [Example 53, N-(1-((1R,2S)-2-fluorocyclopropyl)-2-oxo-1,2-dihydropyridin-3-yl)-2-(1-(fluoromethyl)-2-oxabicyclo[2.1.1]hexan-4-yl)-6-isopropoxy-2H-indazole-5-carboxamide]	8.05	6.21	
CC(C)Oc1cc2nn(C34COC(C3)C4)cc2cc1C(=O)Nc1cccn([C@@H]2C[C@@H]2C)c1=O [Example 74, 2-(2-oxabicyclo[2.1.1]hexan-4-yl)-6-isopropoxy-N-(1-((1R,2S)-2-methylcyclopropyl)-2-oxo-1,2-dihydropyridin-3-yl)-2H-indazole-5-carboxamide]	7.58	2.07	
CC(C)Oc1nc2nn(C34COC(CF)(C3)C4)cc2cc1C(=O)Nc1cccn(C2(C)CC2)c1=O [Example 19, 2-(1-(Fluoromethyl)-2-oxabicyclo[2.1.1]hexan-4-yl)-6-isopropoxy-N-(1-(1-methylcyclopropyl)-2-oxo-1,2-dihydropyridin-3-yl)-2H-pyrazolo[3,4-b]pyridine-5-carboxamide]	8.18	1.91	
CC(C)Oc1cc2nn(C34COC(C)(C3)C4)cc2cc1C(=O)Nc1cccn([C@@H]2C[C@@H]2F)c1=O (racemic) [Example 35, (racemic)-Cis-N-(1-(2-fluorocyclopropyl)-2-oxo-1,2-dihydropyridin-3-yl)-6-isopropoxy-2-(1-methyl-2-oxabicyclo[2.1.1]hexan-4-yl)-2H-indazole-5-carboxamide]			65.7 µg/mL (≈ 141 µM)
CC(C)Oc1nc2nn(C34COC(C)(C3)C4)cc2cc1C(=O)Nc1cccn(C2(C)CC2)c1=O [Example 18, 6-Isopropoxy-2-(1-methyl-2-oxabicyclo[2.1.1]hexan-4-yl)-N-(1-(1-methylcyclopropyl)-2-oxo-1,2-dihydropyridin-3-yl)-2H-pyrazolo[3,4-b]pyridine-5-carboxamide]	8.37	1.31	
CC(C)Oc1cc2nn(C34COC(CF)(C3)C4)cc2cc1C(=O)Nc1cccn([C@H]2C[C@@H]2C)c1=O (single isomer, unassigned) [Example 70]	8.64	1.59	
COCC12CC(n3cc4cc(C(=O)Nc5cccn([C@@H]6C[C@@H]6C)c5=O)c(OC(C)C)cc4n3)(CO1)C2 [Example 73, 6-isopropoxy-2-(1-(methoxymethyl)-2-oxabicyclo[2.1.1]hexan-4-yl)-N-(1-((1R,2S)-2-methylcyclopropyl)-2-oxo-1,2-dihydropyridin-3-yl)-2H-indazole-5-carboxamide]	7.36	1.51	
COCC12CC(n3cc4cc(C(=O)Nc5cccn([C@@H]6C[C@@H]6C)c5=O)c(OC(C)C)nc4n3)(CO1)C2 [Example 72, 6-isopropoxy-2-(1-(methoxymethyl)-2-oxabicyclo[2.1.1]hexan-4-yl)-N-(1-((1R,2S)-2-methylcyclopropyl)-2-oxo-1,2-dihydropyridin-3-yl)-2H-pyrazolo[3,4-b]pyridine-5-carboxamide]	7.56	2.69	
CC[C@H](C)Oc1nc2nn(C34COC(CF)(C3)C4)cc2cc1C(=O)Nc1cccn(C2CC2)c1=O [Example 21, (S)-6-(sec-butoxy)-N-(1-cyclopropyl-2-oxo-1,2-dihydropyridin-3-yl)-2-(1-(fluoromethyl)-2-oxabicyclo[2.1.1]hexan-4-yl)-2H-pyrazolo[3,4-b]pyridine-5-carboxamide]	8.96	3.33	
CC(C)Oc1cc2nn(C34COC(C)(C3)C4)cc2cc1C(=O)Nc1cccn([C@@H]2C[C@H]2C)c1=O (racemic) [Example 39, Racemic-(Trans)-6-isopropoxy-2-(1-methyl-2-oxabicyclo[2.1.1]hexan-4-yl)-N-(1-(2-methylcyclopropyl)-2-oxo-1,2-dihydropyridin-3-yl)-2H-indazole-5-carboxamide]			2.3 µg/mL (≈ 4.97 µM)
CC(C)Oc1nc2nn(C34COC(C)(C3)C4)cc2cc1C(=O)Nc1cccn([C@H]2CC2(C)C)c1=O [Example 23, (S)—N-(1-(2,2-dimethylcyclopropyl)-2-oxo-1,2-dihydropyridin-3-yl)-6-isopropoxy-2-(1-methyl-2-oxabicyclo[2.1.1]hexan-4-yl)-2H-pyrazolo[3,4-b]pyridine-5-carboxamide]	8.89	1.15	
